Experimental data published in patent US11236079B2, “Morpholine derivates as inhibitors of Vps34” (Neuropore Therapies, Inc., priority 2018, dated 2022).

Columns and labels:
PI3Kα = PI3Kα (Homo sapiens (Human), UniProt P42336); test: PI3Kα inhibition, ATP to ADP conversion by ADP-Glo kinase activity assay; assay type: biochemical; conditions: 25 μM PIP2:PS, 60 μM ATP, reaction time 30 minutes
Method: Inhibition of PI3Kα—Quantification of ATP to ADP conversion as a measure of PI3Kα activity. Active PI3Kα (Life Technologies), in the presence or absence of PI3Kα inhibitor, was reacted with PIP2:PS (Life Technologies), a substrate specifically optimized for use with Class I PI3 kinases, and ultrapure ATP (Promega). The conversion of ATP to ADP by PI3Kα was measured as luminescence signal via Promega ADP-Glo kinase activity assay. Assay was validated using published PI3Kα inhibitors LY294002, PI-103, BYL719, and GDC0198 as well as a DMSO vehicle control.
Compounds were prepared at 100× final concentration using a 12-point, 1:3 serial-dilution in DMSO, with DMSO control as the 12th point. Compound was then diluted in HEPES buffer (25 mM HEPES pH 7.5, 1 mM EGTA, 0.3% CHAPS) prior to addition to PI3Kα. Active PI3Kα diluted to 0.24 ng/μL (1.1 nM) in (50 mM HEPES pH 7.5, 6 mM MgCl2, 1 mM EGTA, 200 mM NaCl, 0.03% CHAPS, 8 mM DTT) was incubated with compound for 0 hr and 3 hr prior to the start of the reaction. 25 μM PIP2:PS and 60 μM ATP were diluted from stock solution (25 mM HEPES pH 7.5, 1 mM EGTA, 0.3% CHAPS) and added to initiate the PI3Kα reaction. Reaction time was 30 minutes. ATP to ADP conversion was measured in Luminescence Counts on DTX880 Plate Reader (Beckman Coulter). The IC50 of the compounds were reported using the GraphPad Prism software. Analytical method was non-linear regression, 4-parameter curve fit with bottom fit to validated PI3Kα inhibitor reference controls and no top fit (floating top).

PI3KC3 (hVPS34) kinase = PI3KC3 (hVPS34) kinase (Homo sapiens (Human), UniProt Q8NEB9); test: PI3KC3 (hVPS34) kinase assay, ADP-Glo luminescence detection; assay type: biochemical; conditions: PI:PS lipid substrate, 60 min at 30° C., read-out: VPS34 IC50
Method: The PI3KC3 (hVPS34) kinase reactions utilize ATP and produce ADP as a byproduct. The ADP production is quantified by ADP-Glo luminescence detection. The PI3KC3 (hVPS34) kinase assay was performed by Reaction Biology Corp. (Malvern, Pa.).
This was a 3-step reaction: First, the kinase reaction with lipid substrate was carried out in the presence of ATP. The reaction was then quenched, and the remaining ATP depleted with ADP-Glo™ reagent. Finally, the ADP was converted to ATP, which is measured using a luciferase/luciferin reaction. The luminescence was converted into μM ADP production based on ADP standard curves. The nonlinear regression to obtain the standard curve and IC50 values were performed using Graphpad Prism software.
The substrate (Phosphatidylinositol (PI): Phosphatidylserine (PS)) was added to freshly prepared reaction buffer (40 mM Tris-HCl (pH7.5), 3 μM Orthovanadate, 20 mM MgCl2, 2 mM DTT, 0.05% CHAPS, 1% DMSO). The PI3KC3 (hVPS34) kinase was delivered into the substrate solution with gentle mixing. Compounds were delivered in 100% DMSO into the kinase reaction mixture by Acoustic technology (Echo550; nanoliter range). The reaction was incubated for 20 min at room temperature. ATP was delivered into the reaction mixture to initiate the reaction. After incubating the mixture for 60 min at 30° C., the reaction was quenched with ADP-Glo reagent (Promega ADP Glo Kinase Assay kit #V9102) and incubated for 40 min at room temperature. Detection mixture (Promega ADP Glo Kinase Assay kit #V9102) was added and the reaction was incubated for 30 minutes. Luminescence was measured.

Chain of PI3Kα (P42336 whole entry): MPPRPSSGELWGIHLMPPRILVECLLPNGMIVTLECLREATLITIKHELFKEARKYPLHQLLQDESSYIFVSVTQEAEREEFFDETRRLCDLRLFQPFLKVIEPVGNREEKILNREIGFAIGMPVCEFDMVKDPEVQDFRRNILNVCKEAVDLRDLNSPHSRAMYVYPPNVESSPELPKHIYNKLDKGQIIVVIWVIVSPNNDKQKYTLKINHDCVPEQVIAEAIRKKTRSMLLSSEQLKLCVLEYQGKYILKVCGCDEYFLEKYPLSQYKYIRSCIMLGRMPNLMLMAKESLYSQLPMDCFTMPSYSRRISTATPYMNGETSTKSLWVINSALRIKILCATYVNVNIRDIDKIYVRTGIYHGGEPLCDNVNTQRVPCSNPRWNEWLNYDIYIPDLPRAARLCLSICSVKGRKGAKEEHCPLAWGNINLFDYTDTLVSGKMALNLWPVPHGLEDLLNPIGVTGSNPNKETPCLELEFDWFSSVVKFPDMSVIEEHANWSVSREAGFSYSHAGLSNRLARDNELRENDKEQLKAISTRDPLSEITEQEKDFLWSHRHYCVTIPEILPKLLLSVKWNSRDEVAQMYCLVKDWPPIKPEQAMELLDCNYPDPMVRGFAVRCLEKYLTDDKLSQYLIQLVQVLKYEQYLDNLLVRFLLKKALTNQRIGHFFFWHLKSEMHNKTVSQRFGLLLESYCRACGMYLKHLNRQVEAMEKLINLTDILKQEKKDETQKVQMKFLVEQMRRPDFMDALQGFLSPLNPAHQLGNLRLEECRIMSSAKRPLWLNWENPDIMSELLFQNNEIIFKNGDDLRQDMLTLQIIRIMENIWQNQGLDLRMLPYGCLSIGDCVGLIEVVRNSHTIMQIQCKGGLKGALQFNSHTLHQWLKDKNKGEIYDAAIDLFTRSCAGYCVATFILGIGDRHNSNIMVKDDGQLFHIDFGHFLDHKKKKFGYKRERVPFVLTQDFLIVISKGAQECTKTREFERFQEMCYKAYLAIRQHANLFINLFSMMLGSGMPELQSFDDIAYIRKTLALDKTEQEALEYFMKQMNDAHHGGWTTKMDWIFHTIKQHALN
Chain of PI3Kα (P27986 whole entry partner): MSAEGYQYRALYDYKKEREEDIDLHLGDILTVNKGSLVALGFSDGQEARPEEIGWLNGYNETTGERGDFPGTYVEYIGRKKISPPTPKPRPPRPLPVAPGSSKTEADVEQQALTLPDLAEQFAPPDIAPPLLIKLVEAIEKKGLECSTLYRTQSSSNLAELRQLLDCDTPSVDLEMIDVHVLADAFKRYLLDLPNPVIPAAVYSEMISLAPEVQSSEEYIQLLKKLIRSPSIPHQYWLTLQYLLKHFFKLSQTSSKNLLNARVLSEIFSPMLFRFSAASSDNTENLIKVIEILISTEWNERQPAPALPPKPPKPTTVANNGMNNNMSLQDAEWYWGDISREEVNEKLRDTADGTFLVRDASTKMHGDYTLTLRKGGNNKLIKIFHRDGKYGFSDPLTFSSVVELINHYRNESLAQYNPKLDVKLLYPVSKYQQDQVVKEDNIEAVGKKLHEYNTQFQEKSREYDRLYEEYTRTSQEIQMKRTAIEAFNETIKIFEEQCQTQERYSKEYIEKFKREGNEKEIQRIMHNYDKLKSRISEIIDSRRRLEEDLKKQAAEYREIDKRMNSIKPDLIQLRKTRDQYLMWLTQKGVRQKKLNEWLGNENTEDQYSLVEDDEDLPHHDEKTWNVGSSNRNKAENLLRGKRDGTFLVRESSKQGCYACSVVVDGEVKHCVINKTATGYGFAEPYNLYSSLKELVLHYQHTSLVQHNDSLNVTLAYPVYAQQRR
Chain of PI3KC3 (hVPS34) kinase (Q8NEB9 whole entry): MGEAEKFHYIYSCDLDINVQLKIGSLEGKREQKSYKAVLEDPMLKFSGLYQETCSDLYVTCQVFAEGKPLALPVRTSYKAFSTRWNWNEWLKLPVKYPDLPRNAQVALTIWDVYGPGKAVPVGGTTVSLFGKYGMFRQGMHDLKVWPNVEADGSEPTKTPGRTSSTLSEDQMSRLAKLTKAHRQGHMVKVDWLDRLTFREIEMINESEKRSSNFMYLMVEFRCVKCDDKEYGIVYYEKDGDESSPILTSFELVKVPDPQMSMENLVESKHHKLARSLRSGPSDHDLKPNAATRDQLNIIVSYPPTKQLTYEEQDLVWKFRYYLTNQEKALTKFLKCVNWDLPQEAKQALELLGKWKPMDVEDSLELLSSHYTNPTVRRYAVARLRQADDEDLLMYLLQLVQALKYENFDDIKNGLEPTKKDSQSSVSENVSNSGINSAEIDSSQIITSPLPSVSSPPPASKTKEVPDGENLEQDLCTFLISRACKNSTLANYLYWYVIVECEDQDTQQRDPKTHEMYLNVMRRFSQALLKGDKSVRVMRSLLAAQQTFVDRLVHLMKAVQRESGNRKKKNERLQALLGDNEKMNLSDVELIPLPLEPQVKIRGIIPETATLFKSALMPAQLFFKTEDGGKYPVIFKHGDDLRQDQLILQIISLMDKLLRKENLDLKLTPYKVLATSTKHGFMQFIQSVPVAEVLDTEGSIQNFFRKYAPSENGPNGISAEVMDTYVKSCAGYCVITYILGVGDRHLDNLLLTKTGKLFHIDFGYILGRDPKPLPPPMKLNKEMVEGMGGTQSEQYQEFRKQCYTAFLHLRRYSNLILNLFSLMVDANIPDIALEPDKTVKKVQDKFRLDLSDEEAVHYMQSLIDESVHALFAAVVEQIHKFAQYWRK

Row | SMILES | IC50 (PI3Kα) | IC50 (PI3KC3 (hVPS34) kinase)
1 | Nc1nc(C(F)(F)F)c(-c2cc(S(=O)(=O)c3ccccc3)cc(N3CCOCC3)n2)s1 [Example 6, 5-(6-morpholino-4-(phenylsulfonyl)pyridin-2-yl)-4-(trifluoromethyl)thiazol-2-amine] | 5240 nM | 287 nM
2 | Nc1ncc(-c2cc(Oc3ccccc3)cc(N3CCOCC3)n2)s1 [Example 8, 5-(6-morpholino-4-phenoxypyridin-2-yl)thiazol-2-amine] | 3420 nM | 150 nM
3 | Nc1nnc(-c2cc(N3CCOCC3)cc(S(=O)(=O)c3ccccc3)c2)s1 [Example 3, 5-(3-morpholino-5-(phenylsulfonyl)phenyl)-1,3,4-thiadiazol-2-amine] | 2200 nM | 1600 nM
4 | Nc1nsc(-c2cc(N3CCOCC3)cc(S(=O)(=O)c3ccccc3)c2)n1 [Example 4, 5-(3-morpholino-5-(phenylsulfonyl)phenyl)-1,2,4-thiadiazol-3-amine] | 11200 nM | 2200 nM
5 | Cc1nc(N)sc1-c1cc(S(=O)(=O)c2ccccc2)cc(N2CCOCC2)n1 [Example 7, 4-methyl-5-(6-morpholino-4-(phenylsulfonyl)pyridin-2-yl)thiazol-2-amine] | 2300 nM | 19 nM

The next compounds have a lower IC50 (PI3Kα) than those just listed; values first:

Row | IC50 (PI3Kα) | IC50 (PI3KC3 (hVPS34) kinase) | SMILES
6 | 750 nM | 3800 nM | Nc1ncc(-c2cc(N3CCOCC3)cc(S(=O)(=O)[C@@H]3CCOC3)c2)s1 [Example 1, (R)-5-(3-morpholino-5-((tetrahydrofuran-3-yl)sulfonyl)phenyl)thiazol-2-amine]
7 | 740 nM | 2100 nM | Nc1nc(C(F)(F)F)c(-c2cc(N3CCOCC3)cc(S(=O)(=O)[C@@H]3CCOC3)c2)s1 [Example 2, (R)-5-(3-morpholino-5-((tetrahydrofuran-3-yl)sulfonyl)phenyl)-4-(trifluoromethyl)thiazol-2-amine]
8 | 502 nM | 81 nM | Nc1ncc(-c2cc(S(=O)(=O)c3ccccc3)cc(N3CCOCC3)n2)s1 [Example 5, 5-(6-morpholino-4-(phenylsulfonyl)pyridin-2-yl)thiazol-2-amine]
